According to ChEMBL document CHEMBL1201862, “PubChem BioAssay data set” (2004):
Several values for one entry are separate records, joined by “and”; a condition that tells them apart may be missing. Identical values can stand only once. One block for each molecule: values may come before it. Activity calls are given as the source filed them.

Key:
[1] = cytotoxicity toward NIH3T3 fibroblasts, dose response, counter-screen, cell-based, ATP luminescence, mouse fibroblasts (AID 2010); type: functional;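 further: cells exposed to compound for about 90 hours before reading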
[2] = inhibitors of intracellular T. cruzi replication, confirmation, NIH3T3 host cells, beta-gal luminescence (AID 2044); type: functional, cell-based;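 further: intracellular parasites grown in NIH/3T3 mouse fibroblasts as host cells; luminescent beta-galactosidase reporter signal from transgenic T. cruzi replicating inside host cells; inhibitors lower the luminescence signal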
Cytochrome P450 2D6 = Cytochrome P450 2D6 (Homo sapiens, UniProt P10635);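 further: CYP2D6 member of a cytochrome P450 panel assay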
Sequence of Cytochrome P450 2D6 (P10635 whole entry): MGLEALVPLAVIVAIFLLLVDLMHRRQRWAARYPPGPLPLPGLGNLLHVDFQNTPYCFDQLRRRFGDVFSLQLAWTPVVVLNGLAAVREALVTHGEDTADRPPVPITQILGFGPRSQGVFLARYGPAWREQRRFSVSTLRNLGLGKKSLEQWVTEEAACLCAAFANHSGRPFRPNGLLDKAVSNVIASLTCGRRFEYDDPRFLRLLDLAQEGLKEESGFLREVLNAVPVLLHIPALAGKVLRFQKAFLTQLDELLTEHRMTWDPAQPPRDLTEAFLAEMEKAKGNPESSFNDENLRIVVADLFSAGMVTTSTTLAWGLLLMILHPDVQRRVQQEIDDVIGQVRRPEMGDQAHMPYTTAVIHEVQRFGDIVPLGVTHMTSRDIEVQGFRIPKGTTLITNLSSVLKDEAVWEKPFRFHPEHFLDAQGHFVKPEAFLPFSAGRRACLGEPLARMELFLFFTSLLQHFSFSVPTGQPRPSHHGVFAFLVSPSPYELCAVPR

Cytochrome P450 1A2 = biological target: T1, Cytochrome P450 1A2 (Homo sapiens, UniProt P05177);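 further: PubChem cytochrome P450 panel assay, CYP1A2 panel member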
T1 sequence (P05177 whole entry): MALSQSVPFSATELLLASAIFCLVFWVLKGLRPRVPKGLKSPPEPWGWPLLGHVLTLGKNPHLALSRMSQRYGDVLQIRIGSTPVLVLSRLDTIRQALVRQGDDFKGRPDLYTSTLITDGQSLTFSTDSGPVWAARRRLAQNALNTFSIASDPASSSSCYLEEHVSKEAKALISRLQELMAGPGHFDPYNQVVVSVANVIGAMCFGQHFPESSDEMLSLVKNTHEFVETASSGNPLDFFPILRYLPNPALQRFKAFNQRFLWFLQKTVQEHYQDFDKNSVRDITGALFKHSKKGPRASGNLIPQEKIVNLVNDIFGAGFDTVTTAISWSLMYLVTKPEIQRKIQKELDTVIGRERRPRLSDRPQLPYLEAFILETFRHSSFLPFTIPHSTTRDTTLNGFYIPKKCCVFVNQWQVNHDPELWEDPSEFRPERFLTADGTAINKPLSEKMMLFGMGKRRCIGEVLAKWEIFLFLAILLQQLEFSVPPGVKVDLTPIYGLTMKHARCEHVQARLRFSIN

[3] = HEp-2 cell cytotoxicity, dose response, cytotoxicity control for RSV inhibitor project, HTS (AID 2410); type: functional; settings: human respiratory syncytial virus
Cytochrome P450 3A4 = Cytochrome P450 3A4 (Homo sapiens, UniProt P08684);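 further: CYP3A4 tested as one member of a cytochrome P450 panel screen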
Sequence of Cytochrome P450 3A4 (P08684 whole entry): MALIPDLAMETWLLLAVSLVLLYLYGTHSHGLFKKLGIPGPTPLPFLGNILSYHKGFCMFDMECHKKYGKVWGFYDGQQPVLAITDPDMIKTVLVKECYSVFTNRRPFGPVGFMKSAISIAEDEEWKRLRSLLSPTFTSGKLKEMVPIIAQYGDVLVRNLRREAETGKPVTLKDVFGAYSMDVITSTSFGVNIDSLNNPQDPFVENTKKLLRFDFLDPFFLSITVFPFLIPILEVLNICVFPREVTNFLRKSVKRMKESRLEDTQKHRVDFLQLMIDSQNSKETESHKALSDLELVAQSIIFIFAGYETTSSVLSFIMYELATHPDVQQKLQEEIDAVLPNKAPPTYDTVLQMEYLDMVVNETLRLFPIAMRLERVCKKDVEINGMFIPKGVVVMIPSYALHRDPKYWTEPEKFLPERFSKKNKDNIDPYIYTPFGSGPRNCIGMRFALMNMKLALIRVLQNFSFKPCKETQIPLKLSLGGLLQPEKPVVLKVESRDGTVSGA

Cytochrome P450 2C9 = Cytochrome P450 2C9 (Homo sapiens, UniProt P11712)
Sequence of Cytochrome P450 2C9 (P11712 whole entry): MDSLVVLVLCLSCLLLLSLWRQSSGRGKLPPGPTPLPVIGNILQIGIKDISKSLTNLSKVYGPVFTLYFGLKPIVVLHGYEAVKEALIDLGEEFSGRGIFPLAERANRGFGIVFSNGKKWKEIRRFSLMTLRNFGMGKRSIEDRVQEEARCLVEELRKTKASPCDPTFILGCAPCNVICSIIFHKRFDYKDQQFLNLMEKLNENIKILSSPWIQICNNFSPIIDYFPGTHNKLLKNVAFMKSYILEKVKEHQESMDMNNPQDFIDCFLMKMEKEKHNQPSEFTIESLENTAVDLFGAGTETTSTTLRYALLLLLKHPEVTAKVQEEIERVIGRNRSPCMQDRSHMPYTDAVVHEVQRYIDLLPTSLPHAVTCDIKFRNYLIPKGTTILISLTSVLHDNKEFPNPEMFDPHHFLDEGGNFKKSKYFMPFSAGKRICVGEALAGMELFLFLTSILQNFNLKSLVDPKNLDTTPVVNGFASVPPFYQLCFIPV

Streptococcus = test: Group A Streptococcus viability loss, dose response, counter-screen for streptokinase expression inhibitor project, luminescence, BacTiterGlo (AID 1915); type: functional, organism-based;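 further: potency for reduction of bacterial viability or growth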
[4] = tested on: Streptococcus sp. 'group A'; test: growth inhibition of control SK(-) GAS strain, dose response, counter-screen for streptokinase expression inhibitor project, luminescence, kanamycin, BacTiterGlo, confirmation (AID 1900); type: functional, organism-based

Compound: CCOC(=O)c1oc2ccc(CNC3CCCCC3)c(Cl)c2c1C
EC50 [1]: > 60 µM (not active) | EC50 [2]: 1.73 µM (active)

AC50 (Cytochrome P450 2D6): 11.2 µM (inconclusive) | AC50 (Cytochrome P450 1A2): 12.6 µM (inconclusive)
Compound: COc1ccccc1NC(=O)COC(=O)c1ccc(S(=O)(=O)NCc2ccco2)cc1

Compound: O=C1Nc2ccccc2CCC1Sc1nnc(-c2ccc(Cl)cc2)s1 (stereo not given)
CC50 [3]: 3.7 µM (active)

AC50 (Cytochrome P450 3A4): 0.794 µM (inconclusive)
Compound: CCCC[C@@H]1C[C@H]1C(NC(=O)c1cccnc1)c1ccc(-c2ccccc2)cc1 (stereo not given in full)

Compound: CCC(C)c1ccc(NC(=O)c2cccs2)cc1 (stereo not given)
CC50 [3]: < 0.1 µM (active)

AC50 (Cytochrome P450 3A4): 12.6 µM (inconclusive)
Compound: COCCn1c(=O)c(-c2ccc(F)cc2)nc2cncnc21

AC50 (Cytochrome P450 3A4): 28.2 µM (inconclusive)
Compound: CCC(=O)NC(=S)N1CCN(c2ccc([N+](=O)[O-])cc2Cl)CC1

Compound: CC1CCc2nc(NC(=O)c3ccc(S(=O)(=O)N4CCCc5ccccc54)cc3)sc2C1 (stereo not given)
EC50 [1]: > 60 µM (not active) | EC50 [2]: 1.42 µM (active)

AC50 (Cytochrome P450 3A4): 7.94 µM (inconclusive)
Compound: Cn1c(=O)c(-c2ccc(F)cc2)nc2cncnc21

AC50 (Cytochrome P450 1A2): 5.01 µM (inconclusive)
Compound: O=C(O)[C@H]([C@H]1NCCS1)N1C(=O)c2ccccc2C1=O

Compound: CC1=NN=C(c2ccc(N)cc2)c2cc3c(cc2C1)OCO3 [GYKI-52466]
AC50 (Cytochrome P450 2D6): 25.1 µM (inconclusive) and 31.6 µM (inconclusive) | AC50 (Cytochrome P450 1A2): 31.6 µM (inconclusive)

AC50 (Cytochrome P450 2C9): 11.2 µM (inconclusive)
Compound: COc1cccc(CNC(=O)C2CCN(S(=O)(=O)N3CCCCC3)CC2)c1

Compound: CC1CCc2sc3nc(NCc4ccco4)n4ncnc4c3c2C1 (stereo not given)
CC50 [3]: 30.3 µM (active)

AC50 (Cytochrome P450 2D6): 25.1 µM (inconclusive) | AC50 (Cytochrome P450 2C9): 1 µM (inconclusive) | AC50 (Cytochrome P450 3A4): 31.6 µM (inconclusive)
Compound: FC(F)(F)c1ccccc1-c1nccc(NCc2ccccc2)n1

AC50 (Cytochrome P450 2D6): 11.2 µM (inconclusive) | AC50 (Cytochrome P450 2C9): 20 µM (inconclusive)
Compound: CCOC(=O)C1=C2SCC(=O)N2C(N)=C(C#N)C1

Compound: c1ccc(Nc2nc(-c3ccccc3)nc3ccccc23)cc1
CC50 [3]: 24.8 µM (active)

Compound: COc1ccc2nc(O)c(CNc3cccc(C)c3)cc2c1
CC50 [3]: 6.97 µM (active)

Compound: COc1ccc(CCN(C)CC(=O)Nc2c(C)cc(C)cc2C)cc1OC
EC50 [1]: > 60 µM (not active) | EC50 [2]: 0.592 µM (active)

AC50 (Cytochrome P450 2D6): 3.16 µM (inconclusive) | AC50 (Cytochrome P450 2C9): 0.631 µM (inconclusive)
Compound: COc1ccccc1CNc1ncnc2ccc(-c3ccccc3C#N)cc12

Compound: Cc1ccc(S(=O)(=O)N2CCC(=O)N(C(COCc3ccc(Cl)cc3Cl)Cc3ccccc3)CC2)cc1 (stereo not given)
EC50 [1]: 34.1 µM (active) | EC50 [2]: 1.58 µM (active)

Compound: CC(C)N1CCN(Cc2ccc(-c3ccccc3Cl)o2)CC1CCO (stereo not given)
EC50 [1]: > 60 µM (inconclusive) | EC50 [2]: 1.61 µM (active)

AC50 (Cytochrome P450 2D6): 14.1 µM (inconclusive) | AC50 (Cytochrome P450 1A2): 31.6 µM (inconclusive)
Compound: Cc1ccc(C2=NN(S(C)(=O)=O)C(c3cccs3)C2)cc1 (stereo not given)

AC50 (Cytochrome P450 2C9): 11.2 µM (inconclusive)
Compound: Cc1cc(NC(=S)Nc2ccccc2)ccc1Br

Compound: Cc1ccc2occ(/C=N/NC(N)=S)c(=O)c2c1
CC50 [3]: > 50 µM (active)

AC50 (Cytochrome P450 3A4): 3.55 µM (inconclusive)
Compound: Cc1cc(C)c(C#N)c(OCC(=O)c2ccc(Br)cc2)n1

Compound: O=C(NCc1cccnc1)c1c(O)c2cccc3c2n(c1=O)CCC3
CC50 [3]: 22.8 µM (active)

AC50 (Cytochrome P450 2D6): 12.6 µM (inconclusive)
Compound: CCCCOC(=O)c1ccc(O)cc1 [BUTYLPARABEN]

Compound: COCc1ccc(CN2CCCC(CCC(=O)NCc3cccc(OC)c3)C2)o1 (stereo not given)
EC50 [1]: > 60 µM (not active) | EC50 [2]: 0.914 µM (active)

Compound: CC(C)NC(=O)c1sc2nc3c(c(-c4cccs4)c2c1N)CN(C)CC3
EC50 [1]: > 60 µM (inconclusive) | EC50 [2]: 0.856 µM (active)

Compound: CCCS(=O)(=O)N1CCN(Cc2ccc3c(c2)c2ccccc2n3CC)CC1
CC50 [3]: 20.4 µM (active)

AC50 (Cytochrome P450 2D6): 15.8 µM (inconclusive)
Compound: CCOC(=O)c1cc2sc(C)cc2n1CCCN1C(=O)c2ccccc2C1=O

Compound: Cc1ccc(CN(Cc2cccnc2)C(S)=Nc2cc(Cl)ccc2C)cc1
EC50 [1]: > 60 µM (not active) | EC50 [2]: 1.61 µM (active)

Compound: NC(=O)C1CCN(C(=O)C(=O)c2cn(CC(=O)N3CCCCCC3)c3ccccc23)CC1
EC50 [1]: > 60 µM (not active) | EC50 [2]: 1.32 µM (active)

Compound: O=C(Cc1sc(Nc2ccccc2)nc1-c1ccccc1)NCc1ccccc1
CC50 [3]: 11.2 µM (active)

Compound: Cc1nc(N)sc1-c1csc(Nc2cccc(O)c2)n1
CC50 [3]: 48.4 µM (active)

Compound: Cc1sc2ccccc2c1CC1=NCCN1 [METIZOLINE]
AC50 (Cytochrome P450 2D6): 31.6 µM (inconclusive)

Compound: COc1ccc(C(=O)C2CCCN(Cc3cnc(N4CCCC4)s3)C2)cc1OC (stereo not given)
EC50 [1]: > 30 µM (not active) | EC50 [2]: 0.26 µM (active)

Compound: c1ccc2c(N3CCOCC3)nc(-c3ccncc3)nc2c1
CC50 [3]: 42.6 µM (active)

AC50 (Cytochrome P450 2C9): 0.0891 µM (inconclusive) | AC50 (Cytochrome P450 3A4): 11.2 µM (inconclusive)
Compound: Cc1ccc(-n2c(SCc3ccc([N+](=O)[O-])cc3)nc3ccccc3c2=O)cc1

AC50 (Cytochrome P450 2D6): 3.16 µM (inconclusive) | AC50 (Cytochrome P450 2C9): 3.98 µM (inconclusive)
Compound: CO[C@@H]1/C=C\O[C@@]2(C)Oc3c(C)c(O)c4c(c3C2=O)/C(=N/[C@H]2CC[C@H](O)O[C@@H]2C)C=C(NC(=O)/C(C)=C\C(=O)[C@@H]2C[C@@H]2[C@@H](O)[C@H](C)[C@@H](O)[C@H](C)[C@H](OC(C)=O)[C@@H]1C)C4=O

AC50 (Cytochrome P450 3A4): 3.55 µM (inconclusive)
Compound: Cc1nc(N2CCOCC2)nc(N2CCN(c3ccccc3)CC2)c1[N+](=O)[O-]

AC50 (Cytochrome P450 2D6): 39.8 µM (inconclusive) | AC50 (Cytochrome P450 3A4): 7.94 µM (inconclusive)
Compound: CC(=O)N1CCC2(CCCN(c3cccc(-c4ccccc4)c3)C2)CC1

AC50 (Cytochrome P450 1A2): 2.82 µM (inconclusive)
Compound: COc1cc(C(=O)NC(=S)Nc2cccc(-c3cc4ccccc4oc3=O)c2)cc(OC)c1OC

AC50 (Cytochrome P450 2C9): 25.1 µM (inconclusive) | AC50 (Cytochrome P450 3A4): 20 µM (inconclusive)
Compound: Cc1ccc([N+](=O)[O-])cc1/N=C(/c1cccc([N+](=O)[O-])c1)N1CCOCC1

Compound: CCCN(CC#CC(O)(c1ccccc1)c1cccnc1)CCC (stereo not given)
EC50 [1]: > 60 µM (not active) | EC50 [2]: 0.463 µM (active)

Compound: C[C@H]1[C@H](C)CC[C@]2(C(=O)O)CC[C@]3(C)C(=CC[C@@H]4[C@@]5(C)CC[C@H](O)C(C)(C)[C@@H]5CC[C@]43C)[C@H]12 [URSOLIC ACID]
EC50 (Streptococcus): 0.88 µM (active) | EC50 [4]: 0.949 µM (active) | CC50 [3]: 28.4 µM (active)

AC50 (Cytochrome P450 2C9): 12.6 µM (inconclusive)
Compound: O=C(c1cccs1)n1nc(-c2ccc(Cl)cc2)nc1NCc1ccco1

AC50 (Cytochrome P450 2D6): 3.16 µM (inconclusive) | AC50 (Cytochrome P450 2C9): 5.01 µM (inconclusive) | AC50 (Cytochrome P450 3A4): 3.98 µM (inconclusive)
Compound: C[C@@H]1CC[C@H]2C(=O)NC[C@@H](O)CN2[C@@H]1c1ccc(Br)cc1

Compound: Cc1ccc2ccc(S(=O)(=O)NCc3ccco3)cc2c1
CC50 [3]: 29.2 µM (active)

AC50 (Cytochrome P450 2D6): 12.6 µM (inconclusive)
Compound: O=C1CC(N2CCN(CCc3ccccn3)CC2)C(=O)N1c1ccc(Cl)cc1 (stereo not given)

AC50 (Cytochrome P450 3A4): 3.98 µM (inconclusive)
Compound: COC(=O)CC[C@@H](C)[C@H]1CC[C@H]2[C@H]3CC[C@H]4C[C@@H]5CC[C@@]4(C)C3(O5)[C@@H](Br)[C@@H](Br)[C@@]12C

Compound: O=C(NCCN1CCN(C(=O)C(c2ccccc2)c2ccccc2)CC1)C(=O)Nc1ccccc1
AC50 (Cytochrome P450 2C9): 12.6 µM (inconclusive)

Compound: COc1ccc(CCNc2cc(C)nc3c(-c4ccccc4)cnn23)cc1OC
CC50 [3]: 43.2 µM (active)

AC50 (Cytochrome P450 3A4): 3.98 µM (inconclusive)
Compound: CO[C@H]1COC(=O)C/C=C\[C@@H](C)COC(=O)[C@@H](OCc2ccccc2)/C=C\[C@@H]1C

AC50 (Cytochrome P450 3A4): 15.8 µM (inconclusive)
Compound: O=c1cnc2cnc(N3CCOCC3)nc2n1CCc1ccccc1

AC50 (Cytochrome P450 2D6): 22.4 µM (inconclusive)
Compound: Cc1ccc(/C=C/C2=Cc3c(sc(NC(=O)CSc4nnc(N)[nH]4)c3C#N)C(C)(C)C2)o1

Compound: Clc1ccccc1CSc1cc2c(nn1)-c1ccccc1CC2
CC50 [3]: 22.9 µM (active)

AC50 (Cytochrome P450 2D6): 39.8 µM (inconclusive) | AC50 (Cytochrome P450 2C9): 5.01 µM (inconclusive)
Compound: O=C(Oc1ccccc1)N1CCC2(CCCN(c3ccccn3)C2)CC1

Compound: Cn1nc([N+](=O)[O-])nc1Oc1ccccc1N
EC50 [1]: > 60 µM (not active) | EC50 [2]: 1.08 µM (active)

AC50 (Cytochrome P450 3A4): 3.98 µM (inconclusive)
Compound: S[C@@H]1CCCN(Cc2ccccc2)C1

Compound: Cc1ccc(NC2=NC(=O)CS2)cc1
CC50 [3]: 34.3 µM (active)

Compound: O=C(/C=C/c1cccc([N+](=O)[O-])c1)NCCSCc1ccccc1Cl
CC50 [3]: 25.4 µM (active)

Compound: CC(C)(C)c1ccc(C(=O)N2CCC(C(=O)NC3CCCCCC3)CC2)cc1
CC50 [3]: 42 µM (active)

AC50 (Cytochrome P450 2D6): 3.16 µM (inconclusive)
Compound: COc1cc(/C=C(/C#N)c2nc3ccccc3[nH]2)ccc1Oc1ncccc1[N+](=O)[O-]

AC50 (Cytochrome P450 2D6): 39.8 µM (inconclusive)
Compound: c1cncc(-c2ccc3ncnc(NCCN4CCOCC4)c3c2)c1

Compound: O=C(c1ccc(Cl)cc1)N1CCN(c2ccc([N+](=O)[O-])c(NCc3cccnc3)c2)CC1
CC50 [3]: 35.8 µM (active)

AC50 (Cytochrome P450 2C9): 2.82 µM (inconclusive)
Compound: Cc1ccc(NC(=O)CC2CS(=O)(=O)CC2CC(=O)Nc2ccc(C)c(C)c2)cc1C (stereo not given)
